# The source made the active and inactive calls. No rule for the calls is given here.
# Test system: CCRIS mutagenicity, Ames/micronucleus/aberration tests
# Test: CCRIS mutagenicity studies
# Settings: Test System: AMES SALMONELLA TYPHIMURIUM, Method: PREINCUBATION
structure (smiles),measurement,setting,value
Cc1cc2nc3c(=O)[nH]c(=O)nc-3n(C)c2cc1C,mutagenic call,"Strain/Indicator: TA97A, Metabolic Activation: NONE",inactive; negative
same,mutagenic call,"Strain/Indicator: TA97A, Metabolic Activation: RAT, CECAL CELL-FREE EXTRACT",active; positive
same,mutagenic call,"Strain/Indicator: TA97A, Metabolic Activation: RAT, LIVER, S9, AROCLOR 1254",active; positive
same,mutagenic call,"Strain/Indicator: TA98, Metabolic Activation: NONE",inactive; negative
same,mutagenic call,"Strain/Indicator: TA98, Metabolic Activation: RAT, CECAL CELL-FREE EXTRACT",inactive; negative
same,mutagenic call,"Strain/Indicator: TA98, Metabolic Activation: RAT, LIVER, S9, AROCLOR 1254",active; positive
same,mutagenic call,"Strain/Indicator: TA100, Metabolic Activation: NONE",inactive; negative
same,mutagenic call,"Strain/Indicator: TA100, Metabolic Activation: RAT, CECAL CELL-FREE EXTRACT",inactive; negative
same,mutagenic call,"Strain/Indicator: TA100, Metabolic Activation: RAT, LIVER, S9, AROCLOR 1254",inactive; negative

# — PubChem BioAssay AID1259407 (Chemical Carcinogenesis Research Information System (CCRIS), 2018)
